Results: patent publication EP0547708A1, “Saccharin derivative proteolytic enzyme inhibitors” (STERLING WINTHROP INC., priority 1991, dated 1993)

Target: T1, human leukocyte elastase (Homo sapiens, UniProt P08246)
T1 sequence (P08246 30-267): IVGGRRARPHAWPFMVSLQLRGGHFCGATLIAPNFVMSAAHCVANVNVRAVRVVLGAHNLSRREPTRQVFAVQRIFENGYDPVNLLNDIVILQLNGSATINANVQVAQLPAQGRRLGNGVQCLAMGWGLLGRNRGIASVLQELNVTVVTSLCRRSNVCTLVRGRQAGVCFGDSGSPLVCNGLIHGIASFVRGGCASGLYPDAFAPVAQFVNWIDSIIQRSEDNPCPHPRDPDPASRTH
Assay: Inhibition of human leukocyte elastase in vitro (Ki* = koff/kon)
Format: biochemical
Conditions: Ki* = koff/kon (rate of reactivation of the enzyme divided by rate of inactivation); koff and kon measured, Ki* then calculated
Protocol: Ki*, which is defined as the rate of reactivation of the enzyme divided by the rate of inactivation of the enzyme (koff/kon), was therefore determined instead. The values of koff and kon were measured and Ki* was then calculated.
The value of kon was determined by measuring the enzyme activity of an aliquot of the enzyme as a function of the time after addition of the test compound (inhibitor). […] The value of kon was then obtained by the equation kon = kobs /[I] [formula] wherein [I] is the concentration of the inhibitor. The value of koff was similarly determined, and Ki* was then obtained by the equation Ki * = koff /kon [formula] .

| SMILES | Ki [nM] |
| --- | --- |
| CC(C)c1cccc2c1C(=O)N(COC1=CC(=O)OC1)S2(=O)=O [Example 1A, 2-[(2,5-dihydro-5-oxo-3-furanyl)oxymethyl]-4-isopropylsaccharin] | 0.4 |
| CC(C)c1cccc2c1C(=O)N(COc1cc(=O)oc3ccccc13)S2(=O)=O [Example 1B] | 0.22 |
| CC(C)c1cccc2c1C(=O)N(COc1cc(=O)n(C)c3ccccc13)S2(=O)=O [Example 1C] | 0.7 |
| Cc1cc(OCN2C(=O)c3c(C(C)C)cccc3S2(=O)=O)cc(=O)o1 [Example 1D] | 0.25 |
| Cc1cc(OCN2C(=O)c3c(C(C)C)cccc3S2(=O)=O)c(C(=O)c2ccccc2)c(=O)o1 [Example 1E] | 0.035 |
| CC(C)c1cccc2c1C(=O)N(COc1cc(-c3ccccc3)oc(=O)c1)S2(=O)=O [Example 1F] | 0.22 |
| COc1cc(C(C)C)c2c(c1)S(=O)(=O)N(COC1=C(Cc3ccccc3)C(=O)OC1(C)C)C2=O [Example 1O] | 0.016 |
| COc1cc(C(C)C)c2c(c1)S(=O)(=O)N(COC1=C(CN3CCOCC3)C(=O)OC1)C2=O [Example 1P] | 0.041 |
| COc1cc(C(C)C)c2c(c1)S(=O)(=O)N(COc1nc3ccccn3c(=O)c1CN1CCOCC1)C2=O [Example 5, 2-[3-(4-morpholinylmethyl)-4-oxo-4H-pyrido[1,2-a]pyrimidin-2-yl]oxymethyl-4-isopropyl-6-methoxysaccharin] | 0.23 |
| COc1cc(C(C)C)c2c(c1)S(=O)(=O)N(COC1=C(C)C(=O)C(C)=C(C)C1=O)C2=O [Example 6, 2-(3,5,6-trimethyl-1,4-dioxo-2,5-cyclohexadien-2-yl)oxymethyl-4-isopropyl-6-methoxysaccharin] | 0.92 |
| COc1cc(C(C)C)c2c(c1)S(=O)(=O)N(COC1=C(C(C)=O)C(=O)c3ccoc3C1=O)C2=O [Example 7, 2-(5-acctyl-4,7-dihydro-4,7-dioxobenzofuran-6-yl)oxymethyl-4-isopropyl-6-methoxysaccharin] | 17 |

Continued, values first:

| Ki [nM] | SMILES |
| --- | --- |
| 0.43 | COc1cc(C(C)C)c2c(c1)S(=O)(=O)N(COc1c(C(C)=O)c(=O)n(-c3ccccc3)c3ccccc13)C2=O [Example 3A, 2-(1-phenyl-3-acetylcarbostyryl-4-yl)oxymethyl-4-isopropyl-6-methoxysaccharin] |
| 0.27 | COc1cc(C(C)C)c2c(c1)S(=O)(=O)N(COc1c(C(C)=O)c(=O)n(C)c3ccccc13)C2=O [Example 3B, 2-(1-methyl-3-acetylcarbostyryl-4-yl)oxymethyl-4-isopropyl-6-methoxysaccharin] |
| 0.093 | COc1cc(C(C)C)c2c(c1)S(=O)(=O)N(COC1=CC(=O)OC1(C)C)C2=O [Example 4E] |
| 0.06 | COc1cc(C(C)C)c2c(c1)S(=O)(=O)N(COC1=C(Oc3ccccc3)C(=O)N(c3ccccc3)C1)C2=O [Example 4F] |
| 0.2 | COc1cc(C(C)C)c2c(c1)S(=O)(=O)N(COC1=C(N3CCCCC3)C(=O)N(c3ccccc3)C1)C2=O [Example 4G] |
